{"source": "paper PMC5218480", "about": "(PLoS ONE, 2017)", "test_system": "MV-4-11 cells", "experiment": "Gene expression microarray analysis (Affymetrix PrimeView) and GSEA", "type": "cell-based, human", "design": "RFU PODN (11730768_x_at) / Fold change /veh PODN (11730768_x_at) / RFU LINC00158 (11744669_a_at) / Fold change /veh LINC00158 (11744669_a_at) / RFU DUSP10 (11751237_a_at) / Fold change /veh DUSP10 (11751237_a_at) / RFU ID3 (11757404_x_at) / Fold change /veh ID3 (11757404_x_at) / RFU PLEKHG5 (11737974_s_at) / Fold change /veh PLEKHG5 (11737974_s_at) / RFU LRRC4B (11730491_at) / Fold change /veh LRRC4B (11730491_at) / RFU GIMAP4 (11747438_a_at) / Fold change /veh GIMAP4 (11747438_a_at) / RFU KRT8 (11758183_x_at) / Fold change /veh KRT8 (11758183_x_at) / RFU CNN1 (11734310_a_at) / Fold change /veh CNN1 (11734310_a_at) / RFU VPS37D (11726825_at) / Fold change /veh VPS37D (11726825_at) / RFU C10orf10 (11716522_x_at) / Fold change /veh C10orf10 (11716522_x_at) / RFU KIR2DL2 /// KIR2DL4 /// KIR2DL5A /// KIR2DL5B /// KIR2DS1 /// KIR2DS2 /// KIR2DS3 /// KIR2DS4 /// KIR3DL3 /// KIR3DL3 /// KIR3DS1 (11738374_at) / Fold change /veh KIR2DL2 /// KIR2DL4 /// KIR2DL5A /// KIR2DL5B /// KIR2DS1 /// KIR2DS2 /// KIR2DS3 /// KIR2DS4 /// KIR3DL3 /// KIR3DL3 /// KIR3DS1 (11738374_at) / RFU C1QL1 (11718748_at) / Fold change /veh C1QL1 (11718748_at) / RFU TMPRSS4 (11747572_a_at) / Fold change /veh TMPRSS4 (11747572_a_at) / RFU HAMP (11756126_x_at) / Fold change /veh HAMP (11756126_x_at) / RFU RNFT2 (11725882_a_at) / Fold change /veh RNFT2 (11725882_a_at) / RFU NR4A2 (11747474_a_at) / Fold change /veh NR4A2 (11747474_a_at) / RFU ABCC12 (11746883_a_at) / Fold change /veh ABCC12 (11746883_a_at) / RFU TMEM136 (11760407_x_at) / Fold change /veh TMEM136 (11760407_x_at) / RFU CLDN22 /// WWC2 (11732394_at) / Fold change /veh CLDN22 /// WWC2 (11732394_at) / RFU HLA-DPB1 (11760878_x_at) / Fold change /veh HLA-DPB1 (11760878_x_at) / RFU SPINT1 (11716480_a_at) / Fold change /veh SPINT1 (11716480_a_at) / RFU GAP43 (11754022_s_at) / Fold change /veh GAP43 (11754022_s_at) / RFU A4GNT (11735810_at) / Fold change /veh A4GNT (11735810_at) / RFU PRB3 (11715151_x_at) / Fold change /veh PRB3 (11715151_x_at) / RFU TUBB4B (11761932_at) / Fold change /veh TUBB4B (11761932_at) / RFU CAPN14 (11732068_a_at) / Fold change /veh CAPN14 (11732068_a_at) / RFU TMCC2 (11721928_a_at) / Fold change /veh TMCC2 (11721928_a_at) / RFU IRGQ (11745062_a_at) / Fold change /veh IRGQ (11745062_a_at) / RFU FAM174B (11720279_a_at) / Fold change /veh FAM174B (11720279_a_at) / RFU TMPRSS4 (11748680_a_at) / Fold change /veh TMPRSS4 (11748680_a_at) / RFU FAM212B (11763350_a_at) / Fold change /veh FAM212B (11763350_a_at) / RFU PLEKHG5 (11743358_a_at) / Fold change /veh PLEKHG5 (11743358_a_at) / RFU ZSCAN30 (11745921_a_at) / Fold change /veh ZSCAN30 (11745921_a_at) / RFU CMKLR1 (11741424_a_at) / Fold change /veh CMKLR1 (11741424_a_at) / RFU LOC101060620 /// MAPK8IP1 (11723275_at) / Fold change /veh LOC101060620 /// MAPK8IP1 (11723275_at) / RFU SPTSSB (11747773_x_at) / Fold change /veh SPTSSB (11747773_x_at) / RFU PRSS12 (11739890_at) / Fold change /veh PRSS12 (11739890_at) / RFU BIN1 (11741810_x_at) / Fold change /veh BIN1 (11741810_x_at) / RFU WNT11 (11732464_a_at) / Fold change /veh WNT11 (11732464_a_at) / RFU C10orf10 (11716521_a_at) / Fold change /veh C10orf10 (11716521_a_at) / RFU C5orf56 (11738089_at) / Fold change /veh C5orf56 (11738089_at) / RFU CYB561 (11721691_x_at) / Fold change /veh CYB561 (11721691_x_at) / RFU ANKRD19P (11752326_a_at) / Fold change /veh ANKRD19P (11752326_a_at) / RFU OR2T12 /// OR2T33 /// OR2T8 (11738714_s_at) / Fold change /veh OR2T12 /// OR2T33 /// OR2T8 (11738714_s_at) / RFU VCAN (11748164_a_at) / Fold change /veh VCAN (11748164_a_at) / RFU JSRP1 (11732532_at) / Fold change /veh JSRP1 (11732532_at) / RFU KRTAP10-11 (11738290_x_at) / Fold change /veh KRTAP10-11 (11738290_x_at) / RFU MYO3A (11730013_a_at) / Fold change /veh MYO3A (11730013_a_at) / RFU EBF3 (11725865_a_at) / Fold change /veh EBF3 (11725865_a_at) / RFU CAMK2N1 (11719241_x_at) / Fold change /veh CAMK2N1 (11719241_x_at) / RFU C5orf56 (11738088_a_at) / Fold change /veh C5orf56 (11738088_a_at) / RFU OLFML3 (11715873_a_at) / Fold change /veh OLFML3 (11715873_a_at) / RFU LOC100653217 /// NTM (11731650_a_at) / Fold change /veh LOC100653217 /// NTM (11731650_a_at) / RFU MAPK11 (11762145_a_at) / Fold change /veh MAPK11 (11762145_a_at) / RFU FIZ1 (11724087_x_at) / Fold change /veh FIZ1 (11724087_x_at) / RFU OASL (11726364_x_at) / Fold change /veh OASL (11726364_x_at) / RFU SOX15 (11748057_x_at) / Fold change /veh SOX15 (11748057_x_at) / RFU CD79A (11719716_a_at) / Fold change /veh CD79A (11719716_a_at) / RFU HIST1H1D (11736915_at) / Fold change /veh HIST1H1D (11736915_at) / RFU CASKIN2 (11723855_a_at) / Fold change /veh CASKIN2 (11723855_a_at) / RFU LOC730098 (11760151_x_at) / Fold change /veh LOC730098 (11760151_x_at) / RFU OR4N2 (11742367_at) / Fold change /veh OR4N2 (11742367_at) / RFU PRRT2 (11749266_a_at) / Fold change /veh PRRT2 (11749266_a_at) / RFU SNX32 (11753110_a_at) / Fold change /veh SNX32 (11753110_a_at) / RFU CDHR5 (11726645_a_at) / Fold change /veh CDHR5 (11726645_a_at) / RFU RCAN1 (11760418_a_at) / Fold change /veh RCAN1 (11760418_a_at) / RFU FAM167A (11723789_a_at) / Fold change /veh FAM167A (11723789_a_at) / RFU FAM26E (11764081_at) / Fold change /veh FAM26E (11764081_at) / RFU ISYNA1 (11749810_s_at) / Fold change /veh ISYNA1 (11749810_s_at) / RFU ACY1 (11761880_at) / Fold change /veh ACY1 (11761880_at) / RFU 11764098_at / Fold change /veh 11764098_at / RFU SAMD14 (11745864_x_at) / Fold change /veh SAMD14 (11745864_x_at) / RFU NPB (11741838_a_at) / Fold change /veh NPB (11741838_a_at) / RFU TMPRSS6 (11731388_a_at) / Fold change /veh TMPRSS6 (11731388_a_at) / RFU KRTAP10-2 (11738614_at) / Fold change /veh KRTAP10-2 (11738614_at) / RFU ARHGAP8 /// PRR5-ARHGAP8 (11727945_x_at) / Fold change /veh ARHGAP8 /// PRR5-ARHGAP8 (11727945_x_at) / RFU KRTAP5-7 /// NADSYN1 (11734609_at) / Fold change /veh KRTAP5-7 /// NADSYN1 (11734609_at) / RFU RASL12 (11751679_a_at) / Fold change /veh RASL12 (11751679_a_at) / RFU CDKN2B (11736163_a_at) / Fold change /veh CDKN2B (11736163_a_at) / RFU PRF1 (11729649_at) / Fold change /veh PRF1 (11729649_at) / RFU, ZNF638 /// ZNF638-IT1 / Fold change vs veh, ZNF638 /// ZNF638-IT1 / RFU, PANK3 / Fold change vs veh, PANK3 / RFU, SH3YL1 / Fold change vs veh, SH3YL1 / RFU, ZEB2 / Fold change vs veh, ZEB2 / RFU, NRIP1 / Fold change vs veh, NRIP1 / RFU, PTTG1IP / Fold change vs veh, PTTG1IP / RFU, CAPN2 / Fold change vs veh, CAPN2 / RFU, MED14 / Fold change vs veh, MED14 / RFU, SNORA58 / Fold change vs veh, SNORA58 / RFU, C1orf63 / Fold change vs veh, C1orf63 / RFU, LRRFIP1 / Fold change vs veh, LRRFIP1 / RFU, NDUFAF7 / Fold change vs veh, NDUFAF7 / RFU, SLC12A2 / Fold change vs veh, SLC12A2 / RFU, IBTK / Fold change vs veh, IBTK / RFU, ESF1 / Fold change vs veh, ESF1 / Fold change vs veh, TMEM50B / RFU, TAOK1 / Fold change vs veh, TAOK1 / RFU, ACBD3 / Fold change vs veh, ACBD3 / RFU, TMA16 / Fold change vs veh, TMA16 / RFU, RWDD3 / Fold change vs veh, RWDD3 / RFU, BCAT1 / Fold change vs veh, BCAT1 / RFU, EDEM3 / Fold change vs veh, EDEM3 / RFU, TMEM33 / Fold change vs veh, TMEM33 / RFU, WDR75 / Fold change vs veh, WDR75 / RFU, AHCTF1 / Fold change vs veh, AHCTF1 / RFU, TFRC / Fold change vs veh, TFRC / RFU, ZDHHC17 / Fold change vs veh, ZDHHC17 / RFU, NOM1 / Fold change vs veh, NOM1 / RFU, ARL8B / Fold change vs veh, ARL8B / RFU, ZBTB11 / Fold change vs veh, ZBTB11 / RFU, TAMM41 / Fold change vs veh, TAMM41 / RFU, KIAA1704 /// LOC100996395 / Fold change vs veh, KIAA1704 /// LOC100996395 / RFU, ING1 / Fold change vs veh, ING1 / RFU, TRMT61B / Fold change vs veh, TRMT61B / RFU, FUBP3 / Fold change vs veh, FUBP3 / RFU, TP53 / Fold change vs veh, TP53 / RFU, TNKS2 / Fold change vs veh, TNKS2 / RFU, ZFP14 / Fold change vs veh, ZFP14 / RFU, ACTR2 / Fold change vs veh, ACTR2 / RFU, PPP3R1 / Fold change vs veh, PPP3R1 / RFU, PIK3R1 / Fold change vs veh, PIK3R1 / RFU, HNRNPA1 / Fold change vs veh, HNRNPA1 / RFU, RNF170 / Fold change vs veh, RNF170 / RFU, ZNF28 / Fold change vs veh, ZNF28 / RFU, RNGTT / Fold change vs veh, RNGTT / RFU, OGT / Fold change vs veh, OGT / RFU, BRD1 / Fold change vs veh, BRD1 / RFU, MARS / Fold change vs veh, MARS / RFU, ZNF655 / Fold change vs veh, ZNF655 / RFU, FAHD1 / Fold change vs veh, FAHD1 / RFU, BDP1 / Fold change vs veh, BDP1 / RFU, LRRCC1 / Fold change vs veh, LRRCC1 / RFU, ARID1A / Fold change vs veh, ARID1A / RFU, ZNF146 / Fold change vs veh, ZNF146 / RFU, ZNF330 / Fold change vs veh, ZNF330 / RFU, GPN3 / Fold change vs veh, GPN3 / RFU, C9orf123 / Fold change vs veh, C9orf123 / RFU, N4BP2L2 / Fold change vs veh, N4BP2L2 / RFU, ARFIP1 / Fold change vs veh, ARFIP1 / RFU, FAM179B / Fold change vs veh, FAM179B / RFU, BCL10 / Fold change vs veh, BCL10 / RFU, UHRF1BP1L / Fold change vs veh, UHRF1BP1L / RFU, BET1 / Fold change vs veh, BET1 / RFU, CNOT2 / Fold change vs veh, CNOT2 / RFU, ZNF268 / Fold change vs veh, ZNF268 / Fold change vs veh, ZNF507 / RFU, DGCR2 / Fold change vs veh, DGCR2 / RFU, WDSUB1 / Fold change vs veh, WDSUB1 / Fold change vs veh, HSP90B1 /// MIR3652 / RFU, ADSS / Fold change vs veh, ADSS / RFU, GK / Fold change vs veh, GK / RFU, ZNF148 / Fold change vs veh, ZNF148 / RFU, TAF9 / Fold change vs veh, TAF9 / RFU, SLC1A5 / Fold change vs veh, SLC1A5 / RFU, SLMO2 / Fold change vs veh, SLMO2 / RFU, ABCC4 / Fold change vs veh, ABCC4 / RFU, LOC101060439 /// RAP1B / Fold change vs veh, LOC101060439 /// RAP1B / RFU, RFX7 / Fold change vs veh, RFX7 / RFU, GTPBP10 / Fold change vs veh, GTPBP10 / RFU, CNEP1R1 / Fold change vs veh, CNEP1R1 / RFU, BIVM-ERCC5 /// ERCC5 / Fold change vs veh, BIVM-ERCC5 /// ERCC5 / RFU, ILF3 / Fold change vs veh, ILF3 / RFU 11762660_at / Fold change /veh 11762660_at / RFU VCAN (11757783_s_at) / Fold change /veh VCAN (11757783_s_at) / RFU DDX43 (11728927_at) / Fold change /veh DDX43 (11728927_at) / RFU KRT8 (11758188_x_at) / Fold change /veh KRT8 (11758188_x_at) / RFU NKD1 (11759106_at) / Fold change /veh NKD1 (11759106_at) / RFU SRD5A1 (11742802_a_at) / Fold change /veh SRD5A1 (11742802_a_at) / RFU TPSAB1 /// TPSB2 (11721975_s_at) / Fold change /veh TPSAB1 /// TPSB2 (11721975_s_at) / RFU GSTM3 (11746129_a_at) / Fold change /veh GSTM3 (11746129_a_at) / RFU IL23R (11737362_x_at) / Fold change /veh IL23R (11737362_x_at) / RFU TMEM51 (11727254_a_at) / Fold change /veh TMEM51 (11727254_a_at) / RFU PIWIL2 (11732686_x_at) / Fold change /veh PIWIL2 (11732686_x_at) / RFU ORM1 (11744905_x_at) / Fold change /veh ORM1 (11744905_x_at) / RFU CCDC152 (11743942_at) / Fold change /veh CCDC152 (11743942_at) / RFU ECM1 (11717891_a_at) / Fold change /veh ECM1 (11717891_a_at) / RFU IL23R (11748794_a_at) / Fold change /veh IL23R (11748794_a_at) / RFU TNFAIP8L3 (11732012_x_at) / Fold change /veh TNFAIP8L3 (11732012_x_at) / RFU MBOAT4 (11741988_at) / Fold change /veh MBOAT4 (11741988_at) / RFU 11764193_at / Fold change /veh 11764193_at / RFU TMEM53 (11763286_at) / Fold change /veh TMEM53 (11763286_at) / RFU MAGEB2 (11727129_at) / Fold change /veh MAGEB2 (11727129_at) / RFU TMEM200A (11744735_a_at) / Fold change /veh TMEM200A (11744735_a_at) / RFU CCDC152 (11751479_a_at) / Fold change /veh CCDC152 (11751479_a_at) / RFU FAM211A (11726209_a_at) / Fold change /veh FAM211A (11726209_a_at) / RFU RGS16 (11746705_a_at) / Fold change /veh RGS16 (11746705_a_at) / RFU VCAN (11755009_s_at) / Fold change /veh VCAN (11755009_s_at) / RFU RHOB (11743442_s_at) / Fold change /veh RHOB (11743442_s_at) / RFU RGS16 (11720943_a_at) / Fold change /veh RGS16 (11720943_a_at) / RFU RGS16 (11720944_at) / Fold change /veh RGS16 (11720944_at) / RFU, VPS4B / Fold change vs veh, VPS4B / RFU, CREB1 / Fold change vs veh, CREB1 / RFU, DNAJC13 / Fold change vs veh, DNAJC13 / RFU, GNAQ / Fold change vs veh, GNAQ / RFU, CDK5R1 / Fold change vs veh, CDK5R1 / RFU, ZRANB3 / Fold change vs veh, ZRANB3 / RFU, CUL4A / Fold change vs veh, CUL4A / RFU, CCNY / Fold change vs veh, CCNY / RFU, UFL1 / Fold change vs veh, UFL1 / RFU, COG3 / Fold change vs veh, COG3 / RFU, DIAPH2 / Fold change vs veh, DIAPH2 / RFU, SKA2 / Fold change vs veh, SKA2 / RFU, AFF3 / Fold change vs veh, AFF3 / RFU, LMF1 / Fold change vs veh, LMF1 / RFU, IPO11 / Fold change vs veh, IPO11 / RFU, DFFB / Fold change vs veh, DFFB / RFU, FOXP1 / Fold change vs veh, FOXP1 / RFU, CARD8 / Fold change vs veh, CARD8 / RFU, STRN3 / Fold change vs veh, STRN3 / RFU, ADK / Fold change vs veh, ADK / RFU, RASSF2 / Fold change vs veh, RASSF2 / RFU, WIPF1 / Fold change vs veh, WIPF1 / RFU, LARP1B / Fold change vs veh, LARP1B / RFU, RASA1 / Fold change vs veh, RASA1 / RFU, RB1 / Fold change vs veh, RB1 / RFU, PPFIA1 / Fold change vs veh, PPFIA1 / RFU, MAT2A / Fold change vs veh, MAT2A / RFU, CCT5 / Fold change vs veh, CCT5 / RFU, WDR92 / Fold change vs veh, WDR92 / RFU, CUX1 / Fold change vs veh, CUX1 / RFU, TTC7A / Fold change vs veh, TTC7A / RFU, TMEM135 / Fold change vs veh, TMEM135 / RFU, DEPTOR / Fold change vs veh, DEPTOR / RFU, CPM / Fold change vs veh, CPM / RFU, DNAJB6 / Fold change vs veh, DNAJB6 / RFU, CACNA2D3 / Fold change vs veh, CACNA2D3 / RFU, DTX4 / Fold change vs veh, DTX4 / RFU, TFCP2 / Fold change vs veh, TFCP2 / RFU, GMCL1 /// GMCL1P1 / Fold change vs veh, GMCL1 /// GMCL1P1 / RFU, AEBP2 / Fold change vs veh, AEBP2 / RFU, SNHG1 /// SNORD22 /// SNORD25 /// SNORD26 /// SNORD27 /// SNORD28 /// SNORD29 /// SNORD31 / Fold change vs veh, SNHG1 /// SNORD22 /// SNORD25 /// SNORD26 /// SNORD27 /// SNORD28 /// SNORD29 /// SNORD31 / Fold change (Aza/veh), C12orf56 (ProbeSet 11735607_a_at) / Fold change (ACY-1035/veh), C12orf56 (ProbeSet 11735607_a_at) / Fold change (Aza/veh), FGFR1OP (ProbeSet 11751329_s_at) / Fold change (ACY-1035/veh), FGFR1OP (ProbeSet 11751329_s_at) / Fold change (Aza/veh), VPS36 (ProbeSet 11739960_a_at) / Fold change (ACY-1035/veh), VPS36 (ProbeSet 11739960_a_at) / RFU SYPL1 (11715823_x_at) / Fold change /veh SYPL1 (11715823_x_at) / RFU IGFBP7 (11715501_s_at) / Fold change /veh IGFBP7 (11715501_s_at) / RFU REEP3 (11722064_at) / Fold change /veh REEP3 (11722064_at) / RFU IGLL1 (11728026_x_at) / Fold change /veh IGLL1 (11728026_x_at): dose or concentration left out as unconfirmed", "conditions": "ProbeSet 11729173_a_at; LIST D"}
{"compound": "Nc1ccc(-c2cccs2)cc1NC(=O)c1ccc2c(c1)cc(C1CC1)n2CCN1CCOCC1", "note": "[ACY-1035]", "values": [{"measurement": "RFU, SKA2", "value": 338.69, "unit": "RFU"}]}
